The structures appear in SMILES notation.

Sequence of ERRα ligand binding domain (ERRα-LBD) (P11474 193-421): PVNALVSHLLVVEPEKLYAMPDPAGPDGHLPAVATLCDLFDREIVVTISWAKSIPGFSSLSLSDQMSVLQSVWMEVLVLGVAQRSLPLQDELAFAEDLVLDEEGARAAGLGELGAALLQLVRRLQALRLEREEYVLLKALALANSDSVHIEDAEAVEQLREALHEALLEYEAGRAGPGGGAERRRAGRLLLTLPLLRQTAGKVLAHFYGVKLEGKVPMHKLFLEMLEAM

One assay concerns the target ERRα ligand binding domain (ERRα-LBD) (Homo sapiens (Human), UniProt P11474). Briefly: ERRα AlphaScreen Assay. Type of assay: biochemical. The following applies: disruption of binding of ERRα-LBD protein to biotin-PGC1α-3 co-activator peptide. The text has this:
This assay was based on the knowledge that nuclear receptors interact with cofactors in a ligand dependent matter. The sites of interaction have been mapped to LXXLL motifs that are present in the co-activator sequences. Short peptide sequences that contain the LXXLL motif mimic the behavior of full length co-activators.
The ERRα AlphaScreen Assay described here relies on the interaction of the co-activator peptide with purified bacterial-expressed ERRα ligand binding domain (ERRα-LBD); upon ligand binding the ERRα protein can undergo a conformational change resulting in a loss of co-activator binding.
Compounds of the present invention were tested for their ability to disrupt binding of ERRα-LBD protein to co-activator peptide using AlphaScreen® Technology (Perkin Elmer). ERRα-LBD protein was expressed in E. coli as a 6×His Small Ubiquitin-like Modifier (SUMO) fusion. Bacterial expressed 6His-SUMO-ERRα-LBD protein was purified using affinity chromatography. All experiments were performed at room temperature in 384-well white non-binding plates (Greiner) using 50 mM Tris-HCl pH 7.5, 100 mM NaCl, 0,1% Pluronic F-127, 0.05% BSA and 5 mM TCEP as the buffer. Final DMSO concentration was 1% in the assay. Compounds were assayed in triplicate and: incubated with 0.81 nM ERRα-LBD protein and 10 μg/mL streptavidin donor beads and 10 μg/mL Ni-chelate acceptor beads for 1 hour at room temperature; followed by a 2-hour incubation with 15 nM biotin-PGC1α-3 peptide (QRRPCSELLKYLTTNDDPP) corresponding to amino acids 202 to 220.
The AlphaScreen signal was measured using an Envision Xcite plate reader (Perkin Elmer). Data was normalized, and curve fitting analysis was performed in GraphPad Prism 7 using a four-parameter dose-response fit.
As multiple IC50 values were annotated for the same compound-protein pair, a mean pIC50 for each compound was determined.
Regarding `COc1cc(C2CC(=O)Nc3[nH]nnc32)ccc1OCc1ccccc1C(F)(F)F` (centres unmarked) [Example 90, 7-(3-methoxy-4-{[2-(trifluoromethyl)phenyl]methoxy}phenyl)-3H,4H,5H,6H, 7H-[1,2,3]triazolo[4,5-b]pyridin-5-one], the “mean pIC50” value is at least 8.

Staying with this assay, now noted: disruption of binding of ERRα-LBD protein to biotin-PGC1α-3 co-activator peptide; read-out: mean pIC50 (converted).
On to `O=C1CC(c2ccc(OCc3ccccc3C(F)(F)F)c(F)c2)c2c[nH]nc2N1` (centres unmarked) [Example 74, 4-(3-fluoro-4-{[2-(trifluoromethyl)phenyl]methoxy}phenyl)-2H,4H,5H,6H, 7H-pyrazolo[3,4-b]pyridin-6-one], for which the IC50 is 10 to 100 nM.
As for `COc1cc(C2CC(=O)Nc3n[nH]cc32)c(F)cc1OCc1ccccc1C(F)(F)F` (centres unmarked) [Example 75, 4-(2-fluoro-5-methoxy-4-{[2-(trifluoromethyl)phenyl]methoxy}phenyl)-2H,4H,5H, 6H, 7H-pyrazolo[3,4-b]pyridin-6-one], the IC50 was 10 to 100 nM.
Still for that read-out and setting: as for `O=C1CC(c2ccc(OCc3ccccc3C(F)(F)F)c(C(F)(F)F)c2)c2c[nH]nc2N1` (centres unmarked) [Example 76, 4-[3-(trifluoromethyl)-4-{[2-(trifluoromethyl)phenyl]methoxy}phenyl]-2H,4H,5H,6H, 7H-pyrazolo[3,4-b]pyridin-6-one], the figure is 100 to 1000 nM.
On the same count and under the same terms, as for `COc1cc(C2CC(=O)Nc3n[nH]cc32)c(F)cc1OCc1cccc(F)c1C(F)(F)F` (centres unmarked) [Example 77, 4-(2-fluoro-4-{[3-fluoro-2-(trifluoromethyl)phenyl]methoxy}-5-methoxyphenyl)-2H,4H,5H,6H,7H-pyrazolo[3,4-b]pyridin-6-one], the figure is 100 to 1000 nM; as for `COc1cc(C2CC(=O)Nc3n[nH]cc32)cc(F)c1OCc1ccccc1C(F)(F)F` (centres unmarked) [Example 78, 4-(3-fluoro-5-methoxy-4-{[2-(trifluoromethyl)phenyl]methoxy}phenyl)-2H,4H,5H,6H, 7H-pyrazolo[3,4-b]pyridin-6-one], 100 to 1000 nM.
Still for that read-out and setting: as for `COc1cc(C2CC(=O)Nc3ccsc32)ccc1OCc1ccccc1Cl` (centres unmarked) [Example 79, 7-{4-[(2-chlorophenyl)methoxy]-3-methoxyphenyl}-4H,5H,6H, 7H-thieno[3,2-b]pyridin-5-one], the figure is 100 to 1000 nM; as for `COc1cc(C2CC(=O)Nc3nn(C)cc32)ccc1OCc1ccccc1C(F)(F)F` (centres unmarked) [Example 80, 4-(3-methoxy-4-{[2-(trifluoromethyl)phenyl]methoxy}phenyl)-2-methyl-2H,4H,5H,6H,7H-pyrazolo[3,4-b]pyridin-6-one], 100 to 1000 nM; as for `COc1cc(C2CC(=O)Nc3n[nH]c(C)c32)ccc1OCc1ccccc1C(F)(F)F` (centres unmarked) [Example 82, 4-(3-methoxy-4-{[2-(trifluoromethyl)phenyl]methoxy}phenyl)-3-methyl-2H,4H,5H,6H,7H-pyrazolo[3,4-b]pyridin-6-one], 100 to 1000 nM.
Turning to `COc1cc(C2CC(=O)Nc3ccsc32)ccc1OCc1ccccc1C(F)(F)F` (centres unmarked) [Example 85, 7-(3-methoxy-4-{[2-(trifluoromethyl)phenyl]methoxy}phenyl)-4H,5H,6H, 7H-thieno[3,2-b]pyridin-5-one], the IC50 is 10 to 100 nM.
The same measure, in the same setting: as for `COc1cc(C2CC(=O)N(C)c3n[nH]cc32)ccc1OCc1ccccc1C(F)(F)F` (centres unmarked) [Example 86, 4-(3-methoxy-4-{[2-(trifluoromethyl)phenyl]methoxy}phenyl)-7-methyl-2H,4H,5H,6H,7H-pyrazolo[3,4-b]pyridin-6-one], the figure is 100 to 1000 nM; as for `COc1cc(C2CC(=O)Nc3c[nH]nc32)ccc1OCc1ccccc1C(F)(F)F` (centres unmarked) [Example 87, 7-(3-methoxy-4-{[2-(trifluoromethyl)phenyl]methoxy}phenyl)-2H,4H,5H,6H, 7H-pyrazolo[4,3-b]pyridin-5-one], 10 to 100 nM; as for `COc1cc(C2CC(=O)Nc3ncsc32)ccc1OCc1ccccc1C(F)(F)F` (centres unmarked) [Example 88, 7-(3-methoxy-4-{[2-(trifluoromethyl)phenyl]methoxy}phenyl)-4H,5H,6H,7H-[1,3]thiazolo[4,5-b]pyridin-5-one], 100 to 1000 nM.
Regarding `COc1ccc(COc2ccc(C3CC(=O)Nc4c[nH]nc43)cc2OC)c(C(F)(F)F)c1` (centres unmarked) [Example 92, 7-(3-methoxy-4-{[4-methoxy-2-(trifluoromethyl)phenyl]methoxy}phenyl)-2H,4H,5H,6H,7H-pyrazolo[4,3-b]pyridin-5-one], the IC50 is 10 to 100 nM.
On the same count and under the same terms, as for `COc1cc(C2CC(=O)Nc3c[nH]nc32)ccc1OCc1ccc(C(C)=O)cc1C(F)(F)F` (centres unmarked) [Example 94, 7-(4-{[4-acetyl-2-(trifluoromethyl)phenyl]methoxy}-3-methoxyphenyl)-2H,4H,5H,6H, 7H-pyrazolo[4,3-b]pyridin-5-one], the figure is 100 to 1000 nM; as for `COc1cc(C2CC(=O)Nc3n[nH]c(F)c32)ccc1OCc1ccccc1C(F)(F)F` (centres unmarked) [Example 95, 3-fluoro-4-(3-methoxy-4-{[2-(trifluoromethyl)phenyl]methoxy}phenyl)-2H,4H,5H,6H, 7H-pyrazolo[3,4-b]pyridin-6-one], 100 to 1000 nM.
Take `COc1cc(C2CC(=O)Nc3n[nH]cc32)ccc1OCc1ccc(C#N)cc1C(F)(F)F` (centres unmarked) [Example 105, 4-[(2-methoxy-4-{6-oxo-2H,4H,55H, 6H, 7H-pyrazolo[3,4-b]pyridin-4-yl}phenyl)methoxy]-3-(trifluoromethyl)benzonitrile]: the IC50 is 10 to 100 nM.
Still for that read-out and setting: as for `O=C1CC(c2ccc(COc3ccccc3C(F)(F)F)c(OC(F)(F)F)c2)c2c[nH]nc2N1` (centres unmarked) [Example 108, 4-[3-(trifluoromethoxy)-4-{[2-(trifluoromethyl)phenoxy]methyl}phenyl]-2H,4H,5H,6H,7H-pyrazolo[3,4-b]pyridin-6-one], the figure is 10 to 100 nM; as for `O=C1CC(c2ccc(COc3ccc(C(F)(F)F)cc3C(F)(F)F)c(OC(F)(F)F)c2)c2c[nH]nc2N1` (centres unmarked) [Example 109, 4-(4-{[2,4-bis(trifluoromethyl)phenoxy]methyl}-3-(trifluoromethoxy)phenyl)-2H,4H,5H,6H,7H-pyrazolo[3,4-b]pyridin-6-one], 10 to 100 nM; as for `O=C1CC(c2ccc(COc3ccc(F)cc3C(F)(F)F)c(OC(F)(F)F)c2)c2c[nH]nc2N1` (centres unmarked) [Example 110, 4-(4-{[4-fluoro-2-(trifluoromethyl)phenoxy]methyl}-3-(trifluoromethoxy)phenyl)-2H,4H,5H,6H, 7H-pyrazolo[3,4-b]pyridin-6-one], 100 to 1000 nM.
On the same count and under the same terms, as for `COc1cc(C2CC(=O)Nc3n[nH]cc32)ccc1COc1ccc(C)cc1C` (centres unmarked) [Example 111, 4-{4-[(2,4-dimethylphenoxy)methyl]-3-methoxyphenyl}-2H,4H,5H,6H,7H-pyrazolo[3,4-b]pyridin-6-one], the figure is 10 to 100 nM; as for `COc1cc(C2CC(=O)Nc3n[nH]cc32)ccc1COc1ccc(C(F)(F)F)cc1C` (centres unmarked) [Example 112, 4-(3-methoxy-4-{[2-methyl-4-(trifluoromethyl)phenoxy]methyl}phenyl)-2H,4H,5H,6H,7H-pyrazolo[3,4-b]pyridin-6-one], 10 to 100 nM; as for `COc1cc(C2CC(=O)Nc3n[nH]cc32)ccc1COc1cc(C)cc(C)c1` (centres unmarked) [Example 113, 4-{4-[(3,5-dimethylphenoxy)methyl]-3-methoxyphenyl}-2H,4H,5H,6H,7H-pyrazolo[3,4-b]pyridin-6-one], 100 to 1000 nM.
As for `COc1cc(C2CC(=O)Nc3n[nH]cc32)ccc1COc1cc(C)cc(C(F)(F)F)c1` (centres unmarked) [Example 114, 4-(3-methoxy-4-{[3-methyl-5-(trifluoromethyl)phenoxy]methyl}phenyl)-2H,4H,5H,6H,7H-pyrazolo[3,4-b]pyridin-6-one], the IC50 is 100 to 1000 nM.
With `COc1cc(C2CC(=O)Nc3n[nH]cc32)ccc1COc1ccc(C(F)F)cc1C(F)F` (centres unmarked) [Example 116, 4-(4-{[2,4-bis(difluoromethyl)phenoxy]methyl}-3-methoxyphenyl)-2H,4H,5H,6H,7H-pyrazolo[3,4-b]pyridin-6-one], the IC50 was 10 to 100 nM.
Still for that read-out and setting: the same measure for `COc1cc(C2CC(=O)Nc3n[nH]cc32)ccc1COc1ccc(C(F)(F)F)cc1C(F)F` (centres unmarked) [Example 117, 4-(4-{[2-(difluoromethyl)-4-(trifluoromethyl)phenoxy]methyl}-3-methoxyphenyl)-2H,4H,5H,6H, 7H-pyrazolo[3,4-b]pyridin-6-one]: 10 to 100 nM; for `COc1cc(C2CC(=O)Nc3n[nH]cc32)ccc1COc1cc(C(F)F)cc(C(F)(F)F)c1` (centres unmarked) [Example 118, 4-(4-{[3-(difluoromethyl)-5-(trifluoromethyl)phenoxy]methyl}-3-methoxyphenyl)-2H,4H,5H,6H,7H-pyrazolo[3,4-b]pyridin-6-one]: 100 to 1000 nM.
The same measure, in the same setting: as for `COc1cc(C2CC(=O)Nc3n[nH]cc32)ccc1OCc1ccc(C(=O)O)cc1C(F)(F)F` (centres unmarked) [Example 120, 4-(2-methoxy-4-{6-oxo-2H,4H,5H,6H, 7H-pyrazolo[3,4-b]pyridin-4-yl}phenoxymethyl)-3-(trifluoromethyl)benzoic acid], the figure is 100 to 1000 nM; as for `COc1cc(C2CC(=O)Nc3n[nH]cc32)ccc1OCc1ccc(C(N)=O)cc1C(F)(F)F` (centres unmarked) [Example 121, 4-(2-methoxy-4-{6-oxo-2H,4H,5H,6H, 7H-pyrazolo[3,4-b]pyridin-4-yl}phenoxymethyl)-3-(trifluoromethyl)benzamide], 100 to 1000 nM.

The values are drawn from patent US12527774B2, “Estrogen-related receptor alpha modulators” (LEAD PHARMA HOLDING B.V., priority 2019, dated 2026).
